Like-named read-outs stand apart in the source and are kept apart here.

Data set [1] in a line: carrageenin edema inhibition in rats (antiphlogistic effect), Winter method. The data set is classed as in vivo, male Wistar rats. The conditions noted are these: Rattus norvegicus, po; for inhibition in vivo at 12.5 mg/kg: 12.5 mg/kg p.o.; for inhibition in vivo at 25 mg/kg: 25 mg/kg p.o.; for inhibition in vivo at 50 mg/kg: 50 mg/kg p.o.; for inhibition in vivo at 100 mg/kg: 100 mg/kg p.o. Here is the method: Thus the orally administered compounds of the general Formula (I) efficiently reduce acute inflammatory processes. According to the method of Winter [Proc. Soc. Exp. Biol. Med. 111, 544 (1962)] carrageenin edema is induced and evaluated on male Wistar rats fasted for 16 hours body weight 160-180 g. Percental inhibition is calculated from the average edema values of the groups treated with the test compound on the one hand and with carrier carboxy methyl cellulose, CMC; control on the other. ED50 values are determined by means of regression analysis of the inhibition values. The test compounds are administered through a stomach canule in the form of a 1% carboxy methyl cellulose (CMC) suspension, one hour before introducing the carrageenin injection.

A short description of data set [2]: hot (56° C.) plate test on mice (analgesic effect). The data set is classed as in vivo, male and female CFLP strain mice. The conditions noted are these: Mus musculus, po, 1 h, read-out: Lengthening of reaction time in %; for change in vivo at 25 mg/kg: 25 mg/kg p.o.; for change in vivo at 50 mg/kg: 50 mg/kg p.o.; for change in vivo at 100 mg/kg: 100 mg/kg p.o. On the procedure: The analgesic effect of the compounds of the present invention is tested according to the hot (56° C.) plate test on male and female CFLP strain mice weighing 18-22 g. The point of time of the appearence of the deterring reaction Abwehrreaktion is determined and related to the latent time measured on the control group Woolfe and McDonald 1944. At least 10 animals are used per dose. […] The test is carried out on separated male Wistar rats weighing 180-210 g and fasted for 16 hours. The test compounds are suspended in 1% carboxy methyl cellulose and administered orally in a dose of 10 ml/kg.

The nature of data set [3]: adjuvant induced arthritis in rats, method of Newbold. It counts as in vivo, male Wistar rats. The conditions noted are these: Rattus norvegicus, po, 504 h, read-out: Percental inhibition of the growth of paw volume, on the 21st day; for inhibition in vivo at 25 mg/kg: 25 mg/kg p.o. daily for two weeks. Here is the method:
According to the method of Newbold 0.1 ml of Freund complet adjuvant (Difco Lab. Mich. […] The volume of the hind paws is measured before and 21 days after the administration of the adjuvant with the aid of a mercury plethysmometer. […] In Table II the "percental inhibition of the growth of paw volume" relates to the value determined on the 21st day. […] The tests show furthermore that the compounds of the present invention are active not only in healing morphological deformations but effect in a desirable and useful manner the functional condition and fitness of the feet, moreover the general physical state and condition of the animals, too.

Data set [4] in a line: ulcerogenic effect (stomach haemorrhage and ulcers). It counts as in vivo, male Wistar rats. The conditions noted are these: rat, po, acute test, rats, five hours after treatment, read-out: UD50.
Experimental: Five hours after treatment the animals are sacrificed and their stomachs are placed into a 2.5% formaline solution. The number and rate of punctiform haemorrhage and ulcers is evaluated according to the following scale:
1=some punctiform haemorrhage (<10);
2=diffuse haemorrhage or small ulcer (<2 mm);
3=two or more minor small ulcer (<2 mm);
4=one or more large ulcer (>2 mm).
[5] abbreviates: rats, read-out: Percental inhibition of paw volume.
[6] abbreviates: carrageenin edema, rats, p.o., regression analysis, read-out: ED50.
[7] abbreviates: read-out: Percental inhibition of paw volume.

In the case of `Cc1cc(Sc2n[nH]c(C)n2)c2cccc(C)c2n1` [Compound 64], in data set [1] (setting [5]), the inhibition in vivo at 12.5 mg/kg worked out at 15%, the inhibition in vivo at 25 mg/kg amounted to 27%, the inhibition in vivo at 50 mg/kg stood at 44% and the inhibition in vivo at 100 mg/kg was 65%. Besides, in data set [1] (setting [6]), the ED50 was 59.1 mg/kg. In addition, in data set [2], the change in vivo at 25 mg/kg worked out at 17%, the change in vivo at 50 mg/kg is 39% and the change in vivo at 100 mg/kg was 44%. Further, the inhibition in vivo at 25 mg/kg in data set [3] is 40.6%.
With `Cc1cc(Sc2n[nH]c(C)n2)c2ccc(Cl)c(C)c2n1` [Compound 69], in data set [1] (setting [5]), the inhibition in vivo at 12.5 mg/kg is 27%, the inhibition in vivo at 25 mg/kg is 33%, the inhibition in vivo at 50 mg/kg is 52% and the inhibition in vivo at 100 mg/kg is 86%. In addition, in data set [1] (setting [6]), the ED50 came to 35 mg/kg. For the same compound, in data set [2], the change in vivo at 25 mg/kg is 13%, the change in vivo at 50 mg/kg stood at 24% and the change in vivo at 100 mg/kg amounted to 30%. Also, the inhibition in vivo at 25 mg/kg in data set [3] was 35.2%.
Take `Cc1cc2ccccc2nc1-n1cncn1` [Compound 83, 2-(1H-1,2,4-triazole-1-yl)-3-methyl-quinoline]: in data set [1] (setting [5]), the inhibition in vivo at 12.5 mg/kg amounted to 21%, the inhibition in vivo at 25 mg/kg came to 63%, the inhibition in vivo at 50 mg/kg was 70% and the inhibition in vivo at 100 mg/kg worked out at 72%. In data set [1] (setting [6]), the median effective dose (ED50) worked out at 28.1 mg/kg. In data set [2], the change in vivo at 25 mg/kg was found to be 16%, the change in vivo at 50 mg/kg was found to be 28% and the change in vivo at 100 mg/kg came out at 59%. In addition, the inhibition in vivo at 25 mg/kg in data set [3] came out at 46.7%.
Consider `Cc1cc2ccccc2nc1Sc1nc[nH]n1` [Compound 107], for which, in data set [1] (setting [5]), the inhibition in vivo at 12.5 mg/kg worked out at 29%, the inhibition in vivo at 25 mg/kg turned out to be 40%, the inhibition in vivo at 50 mg/kg came to 70% and the inhibition in vivo at 100 mg/kg stood at 74%. For the same compound, the ED50 in data set [1] (setting [6]) stood at 30.6 mg/kg. Further, in data set [2], the change in vivo at 25 mg/kg stood at 34%, the change in vivo at 50 mg/kg came to 41% and the change in vivo at 100 mg/kg is 88%. Also, the inhibition in vivo at 25 mg/kg in data set [3] is 17.8%.
Regarding `Cc1ccc2nc(Sc3nc[nH]n3)c(C)cc2c1` [Compound 108], in data set [1] (setting [5]), the inhibition in vivo at 12.5 mg/kg came to 19%, the inhibition in vivo at 25 mg/kg worked out at 45%, the inhibition in vivo at 50 mg/kg is 61% and the inhibition in vivo at 100 mg/kg is 70%. Moreover, the median effective dose (ED50) in data set [1] (setting [6]) is 38.5 mg/kg. Besides, in data set [2], the change in vivo at 25 mg/kg came to 34%, the change in vivo at 50 mg/kg came to 46% and the change in vivo at 100 mg/kg turned out to be 46%. Moreover, in data set [3], the inhibition in vivo at 25 mg/kg was found to be 35.2%.
For the compound `Cc1cc2cccc(C)c2nc1Sc1nc[nH]n1` [Compound 110], in data set [1] (setting [5]), the inhibition in vivo at 12.5 mg/kg turned out to be 10%, the inhibition in vivo at 25 mg/kg was 42%, the inhibition in vivo at 50 mg/kg amounted to 46% and the inhibition in vivo at 100 mg/kg came out at 61%. Also, the ED50 in data set [1] (setting [6]) turned out to be 51.4 mg/kg. In data set [2], the change in vivo at 25 mg/kg was found to be 21%, the change in vivo at 50 mg/kg amounted to 34% and the change in vivo at 100 mg/kg was 52%. The inhibition in vivo at 25 mg/kg in data set [3] came to 32.1%.
For `COc1ccc2c(c1)c(CC(=O)O)c(C)n2C(=O)c1ccc(Cl)cc1` [Indomethacin, reference compound], the TD50 at 5 h in data set [4] was 6.3 mg/kg. In data set [1], the ED50 turned out to be 4.1 mg/kg. Besides, in data set [1] (setting [7]), the inhibition in vivo at 1 mg/kg was 28%, the inhibition in vivo at 2 mg/kg is 40%, the inhibition in vivo at 4 mg/kg turned out to be 47% and the inhibition in vivo at 8 mg/kg is 64%. The inhibition in vivo at 12 mg/kg in data set [1] (setting [7]) stood at 67%.
On to `COc1ccc2cc([C@H](C)C(=O)O)ccc2c1` [Naproxen, reference compound], for which, in data set [1] (setting [5]), the inhibition in vivo at 12.5 mg/kg was found to be 33%, the inhibition in vivo at 25 mg/kg was 49%, the inhibition in vivo at 50 mg/kg came out at 64% and the inhibition in vivo at 100 mg/kg is 71%. In addition, the ED50 in data set [1] (setting [6]) is 28.7 mg/kg. Moreover, in data set [2] (12.5 mg/kg p.o.), the change in vivo at 12.5 mg/kg amounted to 25%. Besides, in data set [2], the change in vivo at 25 mg/kg worked out at 31%, the change in vivo at 50 mg/kg came to 45% and the change in vivo at 100 mg/kg came out at 49%. In addition, in data set [3] (12.5 mg/kg p.o.), the inhibition in vivo at 12.5 mg/kg was determined as 16.8%. The inhibition in vivo at 25 mg/kg in data set [3] was 28.4%.
For the compound `CCCCC1C(=O)N(c2ccccc2)N(c2ccccc2)C1=O` [Phenylbutazon, reference compound], in data set [1] (setting [5]), the inhibition in vivo at 25 mg/kg worked out at 21%, the inhibition in vivo at 50 mg/kg turned out to be 42% and the inhibition in vivo at 100 mg/kg was 45%. In data set [1] (200 mg/kg p.o., rats, read-out: Percental inhibition of paw volume), the inhibition in vivo at 200 mg/kg was 66%. In data set [1] (setting [6]), the ED50 stood at 101 mg/kg. Besides, in data set [2], the change in vivo at 100 mg/kg came to 29%. Moreover, in data set [2] (150 mg/kg p.o.), the change in vivo at 150 mg/kg worked out at 42%. In data set [2] (200 mg/kg p.o.), the change in vivo at 200 mg/kg is 44%. Also, the inhibition in vivo at 50 mg/kg in data set [3] (50 mg/kg p.o.) came to 18.5%.

The values above are taken from US5104884A, “Triazolyl quinoline derivatives” (Alkaloida Vegyeszeti Gyar, priority 1985, dated 1992).
